In brackets after ≈: the same amount, converted by molar mass. *1 amine or outer side, *2 acyl side, *3 side chain or, on linkers, in order; H or OH if unused. Where a SMILES comes first, the peptide text is derived from it. Bridges are numbered along the chain shown (N, C = ends). [ ]: non-standard residue; d: D form. The star is where a group is joined. Benzoyl(3-Ph) = O=C(c1cccc(-c2ccccc2)c1)*; Hexanoyl(6-Ph) = O=C(CCCCCc1ccccc1)*; NH(2-ClPh) = Clc1ccccc1N*; dDab = NCC[C@@H](N)C(=O)O; hSer = N[C@@H](CCO)C(=O)O; Octanoyl = CCCCCCCC(=O)*; Dab = NCC[C@H](N)C(=O)O; CO = O=C([*:1])[*:2]
What was measured:
in vitro = conditions: human
Method in brief: (§1)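 HK-2 cells seeded 2000 cells/well in DMEM/F12 with 10% FBS, grown 24 h, then exposed to compounds (300 µM to 2.3 µM, 2-fold series; colistin/polymyxin B 1 mM to 7.8 µM) for 24 h at 37 °C. LDH in medium read at 450 nm after 30 min; cytotoxicity % relative to 1% Triton X-100 and untreated cells.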

[1] = system: ATCC reference strains (Escherichia coli, Klebsiella pneumoniae, A. baumannii, and P. aeruginosa)
Description: All compounds synthesised in this study were assessed for their minimum inhibitory concentrations (MIC, mg/L) by broth microdilution assay against five antibiotic-sensitive and resistant ATCC reference strains covering the Gram-negative ESKAPE pathogens (Escherichia coli, Klebsiella pneumoniae, A. baumannii, and P. aeruginosa) (Table 1, Table 2 and Table 3). Staphylococcus aureus was also included as a representative Gram-positive bacterial strain. […] Polymyxin B 1, colistin 2, vancomycin and gentamicin were used as positive inhibitor comparator compounds. Compounds were counter-screened against human proximal tubular epithelial cells (HK-2), using LDH release as a general indicator of cellular toxicity.

K. pneumoniae BAA 2146 = assay: microbe, parasite or virus in culture
Method in brief: (§2)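 Broth microdilution; read-out = minimum inhibitory concentration, mg/L. Comparators: polymyxin B, colistin, vancomycin, gentamicin.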

[2] = system: K. pneumoniae ATCC 700603; assay: microbe, parasite or virus in culture
Method in brief: as §2

S. aureus ATCC 25923 = assay: microbe, parasite or virus in culture
Method in brief: as §2

K. pneumoniae ATCC 13833 = assay: microbe, parasite or virus in culture
Method in brief: as §2

P. aeruginosa ATTC 27853 = assay: microbe, parasite or virus in culture
Method in brief: as §2

[3] = system: human proximal tubular epithelial cells (HK-2); assay: Cytotoxicity, LDH release assay in HK-2 cells
Method in brief: as §1

E. coli ATCC 25922 = assay: microbe, parasite or virus in culture
Method in brief: as §2

[4] = system: P. aeruginosa FADDI PA070; assay: microbe, parasite or virus in culture
Method in brief: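 Values are minimum inhibitory concentrations in mg/L, obtained by serial dilution of compound in broth with the bacterial strain. Polymyxin B, colistin, vancomycin and gentamicin were run alongside as reference antibacterials.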

A. baumannii ATCC 19606 = assay: microbe, parasite or virus in culture
Method in brief: as §2

[5] = broth microdilution, 18 h, 37 °C
[6] = Pmx-resistant clinical isolate, broth microdilution, 18 h
[7] = NDM-1 positive strain, broth microdilution, 18 h
[8] = ESBL strain, broth microdilution, 18 h
[9] = Gram-positive strain, broth microdilution, 18 h

| Compound | CC50 at 24 h (in vitro) [µM] | MIC K. pneumoniae BAA 2146 (K. pneumoniae BAA 2146; BAA 2146, 18 h) [mg/L] | MIC K. pneumoniae ATCC 700603 ([2]; ATCC 700603, 18 h) [mg/L] | MIC S. aureus ATCC 25923 (S. aureus ATCC 25923; ATCC 25923, 18 h) [mg/L] | MIC K. pneumoniae ATCC 13833 (K. pneumoniae ATCC 13833; ATCC 13833, 18 h) [mg/L] | MIC P. aeruginosa ATTC 27853 (P. aeruginosa ATTC 27853; ATTC 27853, 18 h) [mg/L] | MIC E. coli ATCC 25922 (E. coli ATCC 25922; ATCC 25922, 18 h) [mg/L] | MIC P. aeruginosa FADDI PA070 ([4]; FADDI PA070, 18 h) [mg/L] | MIC A. baumannii ATCC 19606 (A. baumannii ATCC 19606; ATCC 19606, 18 h) [mg/L] | further results |
| --- | --- | --- | --- | --- | --- | --- | --- | --- | --- | --- |
| CCCCCCCC(=O)N[C@H](C(=O)N[C@@H](CCN)C(=O)N[C@H]1CCNC(=O)[C@H]([C@@H](C)O)NC(=O)[C@H](CCN)NC(=O)[C@H](CCN)NC(=O)[C@H](CC(C)C)NC(=O)[C@@H](Cc2ccccc2)NC(=O)[C@H](CCN)NC1=O)[C@@H](C)O [Compound 8] (Octanoyl-T[Dab][Dab][Dab][dF]L[Dab][Dab]T; lactam 3-C) | 209 | 2 (≈ 1.84 µM) | 2 (≈ 1.84 µM) | >32 | 1 (≈ 0.918 µM) | 0.5 (≈ 0.459 µM) |  |  |  | MIC for most strains [1]: 1 to 2 mg/L |
| CCCCCCCC(=O)N[C@@H](CCN)C(=O)N[C@H](C(=O)N[C@@H](CCN)C(=O)N[C@H]1CCNC(=O)[C@H]([C@@H](C)O)NC(=O)[C@H](CCN)NC(=O)[C@H](CCN)NC(=O)[C@H](CC(C)C)NC(=O)[C@@H](Cc2ccccc2)NC(=O)[C@H](CCN)NC1=O)[C@@H](C)O [PmxB3, polymyxin B3, reference compound] (Octanoyl-[Dab]T[Dab][Dab][Dab][dF]L[Dab][Dab]T; lactam 4-C) | > 300 | 0.5 (≈ 0.42 µM) | 1 (≈ 0.841 µM) | >32 | 2 (≈ 1.68 µM) | 0.5 (≈ 0.42 µM) |  |  |  | fold more active than nonapeptide 8 ([1]; MIC comparison against most strains): 2- to 4 fold |
| polymyxin B [PmxB 1, reference compound] |  |  |  |  |  |  |  |  |  | CC50 ([3]; read-out: CC50 HK-2, LDH release, 24 h incubation): > 300 µM; MIC E. coli ATCC 25922 (E. coli ATCC 25922; [5]): 1 mg/L; MIC P. aeruginosa FADDI PA070 [4, 6]: 32 mg/L; MIC K. pneumoniae BAA 2146 (K. pneumoniae BAA 2146; [7]): 0.25 mg/L; MIC K. pneumoniae ATCC 700603 [2, 8]: 0.5 mg/L; MIC S. aureus ATCC 25923 (S. aureus ATCC 25923; [9]): >32 mg/L; MIC A. baumannii ATCC 19606 (A. baumannii ATCC 19606; broth microdilution, 18 h): 0.25 mg/L; MIC K. pneumoniae ATCC 13833 (K. pneumoniae ATCC 13833; broth microdilution, 18 h): 1 mg/L; MIC P. aeruginosa ATTC 27853 (P. aeruginosa ATTC 27853; broth microdilution, 18 h): 0.5 mg/L |
| CCCCCCCC(=O)N[C@@H](CO)C(=O)N[C@H](CCN)C(=O)N[C@H]1CCNC(=O)[C@H]([C@@H](C)O)NC(=O)[C@H](CCN)NC(=O)[C@H](CCN)NC(=O)[C@H](CC(C)C)NC(=O)[C@@H](Cc2ccccc2)NC(=O)[C@H](CCN)NC1=O [Compound 30] (Octanoyl-S[dDab][Dab][Dab][dF]L[Dab][Dab]T; lactam 3-C) | > 300 | 8 (≈ 7.44 µM) | 4 (≈ 3.72 µM) | >32 | >32 | 1 (≈ 0.93 µM) | 8 (≈ 7.44 µM) | 16 (≈ 14.9 µM) | >32 |  |
| CCCCCCCC(=O)N[C@H](C(=O)N[C@@H](CO)C(=O)N[C@H]1CCNC(=O)[C@H]([C@@H](C)O)NC(=O)[C@H](CCN)NC(=O)[C@H](CCN)NC(=O)[C@H](CC(C)C)NC(=O)[C@@H](Cc2ccccc2)NC(=O)[C@H](CCN)NC1=O)[C@@H](C)O [Compound 35] (Octanoyl-TS[Dab][Dab][dF]L[Dab][Dab]T; lactam 3-C) | 220 | 16 (≈ 14.9 µM) | 32 (≈ 29.7 µM) | >32 | >32 | 16 (≈ 14.9 µM) |  |  | >32 | MIC for most strains [1]: 16 to 32 mg/L |
| CC(C)C[C@@H]1NC(=O)[C@@H](Cc2ccccc2)NC(=O)[C@H](CCN)NC(=O)[C@@H](NC(=O)[C@@H](CCN)NC(=O)[C@@H](NC(=O)CCCCCc2ccccc2)[C@@H](C)O)CCNC(=O)[C@H]([C@@H](C)O)NC(=O)[C@H](CCN)NC(=O)[C@H](CCN)NC1=O [Compound 25] ({Hexanoyl(6-Ph)}-T[dDab][Dab][Dab][dF]L[Dab][Dab]T; lactam 3-C) | > 300 | 0.5 (≈ 0.44 µM) | 1 (≈ 0.879 µM) | >32 | 4 (≈ 3.52 µM) | 2 (≈ 1.76 µM) | 0.5 (≈ 0.44 µM) | 8 (≈ 7.03 µM) | 2 (≈ 1.76 µM) | MIC against the ATCC strains [1]: 0.5 to 4 mg/L |
| CCCCCCCC(=O)N[C@H](C(=O)N[C@@H](CCN)C(=O)N[C@@H]1CCNC(=O)[C@H]([C@@H](C)O)NC(=O)[C@H](CCN)NC(=O)[C@H](CCN)NC(=O)[C@H](CC(C)C)NC(=O)[C@@H](Cc2ccccc2)NC(=O)[C@H](CCN)NC1=O)[C@@H](C)O [Compound 19] (Octanoyl-T[Dab][dDab][Dab][dF]L[Dab][Dab]T; lactam 3-C) | > 300 | >32 | >32 | >32 | >32 | >32 | >32 |  | >32 | MIC for all strains [1]: > 32 mg/L |
| CCCCCCCC(=O)N[C@@H](CCO)C(=O)N[C@H](CCN)C(=O)N[C@H]1CCNC(=O)[C@H]([C@@H](C)O)NC(=O)[C@H](CCN)NC(=O)[C@H](CCN)NC(=O)[C@H](CC(C)C)NC(=O)[C@@H](Cc2ccccc2)NC(=O)[C@H](CCN)NC1=O [Compound 31] (Octanoyl-[hSer][dDab][Dab][Dab][dF]L[Dab][Dab]T; lactam 3-C) | 181 | 8 (≈ 7.34 µM) | 8 (≈ 7.34 µM) | >32 | >32 | 2 (≈ 1.84 µM) | 16 (≈ 14.7 µM) | 8 (≈ 7.34 µM) | >32 |  |
| colistin [Col 2, reference compound] |  |  |  |  |  |  |  |  |  | CC50 [3]: > 300 µM; MIC E. coli ATCC 25922 (E. coli ATCC 25922; [5]): 0.25 mg/L; MIC P. aeruginosa FADDI PA070 [4, 6]: >32 mg/L; MIC K. pneumoniae BAA 2146 (K. pneumoniae BAA 2146; [7]): 0.25 mg/L; MIC K. pneumoniae ATCC 700603 [2, 8]: 0.25 mg/L; MIC S. aureus ATCC 25923 (S. aureus ATCC 25923; [9]): >32 mg/L; MIC A. baumannii ATCC 19606 (A. baumannii ATCC 19606; broth microdilution, 18 h): 0.25 mg/L; MIC K. pneumoniae ATCC 13833 (K. pneumoniae ATCC 13833; broth microdilution, 18 h): 0.25 mg/L; MIC P. aeruginosa ATTC 27853 (P. aeruginosa ATTC 27853; broth microdilution, 18 h): 0.5 mg/L |
| CC(C)C[C@@H]1NC(=O)[C@@H](Cc2ccccc2)NC(=O)[C@H](CCN)NC(=O)[C@@H](NC(=O)[C@@H](CCN)NC(=O)[C@@H](NC(=O)c2cccc(-c3ccccc3)c2)[C@@H](C)O)CCNC(=O)[C@H]([C@@H](C)O)NC(=O)[C@H](CCN)NC(=O)[C@H](CCN)NC1=O [Compound 27] ({Benzoyl(3-Ph)}-T[dDab][Dab][Dab][dF]L[Dab][Dab]T; lactam 3-C) | > 300 | 8 (≈ 7 µM) | 16 (≈ 14 µM) | >32 | 32 (≈ 28 µM) | 2 (≈ 1.75 µM) | 4 (≈ 3.5 µM) | 8 (≈ 7 µM) | >32 |  |
| CCCCCCCC(=O)N[C@H](C(=O)N[C@H](CCN)C(=O)N[C@H]1CCNC(=O)[C@H]([C@@H](C)O)NC(=O)[C@H](CCN)NC(=O)[C@H](CCN)NC(=O)[C@H](CC(C)C)NC(=O)[C@@H](Cc2ccccc2)NC(=O)[C@H](CCN)NC1=O)[C@@H](C)O [Compound 21] (Octanoyl-T[dDab][Dab][Dab][dF]L[Dab][Dab]T; lactam 3-C) | 289 | 1 (≈ 0.918 µM) | 1 (≈ 0.918 µM) | >32 | 4 (≈ 3.67 µM) | 2 (≈ 1.84 µM) | 0.5 (≈ 0.459 µM) | 8 (≈ 7.34 µM) | 8 (≈ 7.34 µM) |  |
| CC(C)C[C@@H]1NC(=O)[C@@H](Cc2ccccc2)NC(=O)[C@H](CCN)NC(=O)[C@@H](NC(=O)[C@@H](CCN)NC(=O)[C@@H](NC(=O)Nc2ccccc2Cl)[C@@H](C)O)CCNC(=O)[C@H]([C@@H](C)O)NC(=O)[C@H](CCN)NC(=O)[C@H](CCN)NC1=O [Compound 22] ({NH(2-ClPh)-CO}-T[dDab][Dab][Dab][dF]L[Dab][Dab]T; lactam 3-C) | > 300 |  |  |  |  |  |  |  |  | MIC E. coli ATCC 25922 (E. coli ATCC 25922; [5]): 16 mg/L (≈ 14.3 µM); MIC P. aeruginosa FADDI PA070 [4, 6]: >32 mg/L; MIC K. pneumoniae BAA 2146 (K. pneumoniae BAA 2146; [7]): 16 mg/L (≈ 14.3 µM); MIC K. pneumoniae ATCC 700603 [2, 8]: 16 mg/L (≈ 14.3 µM); MIC S. aureus ATCC 25923 (S. aureus ATCC 25923; [9]): >32 mg/L; MIC A. baumannii ATCC 19606 (A. baumannii ATCC 19606; broth microdilution, 18 h): >32 mg/L; MIC K. pneumoniae ATCC 13833 (K. pneumoniae ATCC 13833; broth microdilution, 18 h): 16 mg/L (≈ 14.3 µM); MIC P. aeruginosa ATTC 27853 (P. aeruginosa ATTC 27853; broth microdilution, 18 h): 2 mg/L (≈ 1.79 µM) |

— article PMC6384738, “Structure-Function Studies of Polymyxin B Lipononapeptides” (Molecules, 2019)
